Experimental findings from ChEMBL document CHEMBL5053549, “Discovery of Potent and Novel Dual PARP/BRD4 Inhibitors for Efficient Treatment of Pancreatic Cancer” (J Med Chem, 2021) are described below.

The test system of data set [1] is SW1990. Description: Induction of DNA damage in human SW1990 cells assessed as tail DNA at 1 to 4 uM incubated for 4 days in presence of 3 uM Olaparib by comet assay. The data set is classed as functional, cell-based. The note with it: dose 1-4 µM, time 4.0 day.
For data set [2], the system named is Mus musculus. Description: Toxicity in BALB/c mouse xenografted with human SW1990 cells assessed as lung damage at 45 mg/kg, ip administered for 28 consecutive days by H and E staining based […] microscopic analysis. The data set is classed as organism-based. The settings on record: in vivo, 672 h, time 28 day.
Data set [3] concerns Mus musculus. Description: Toxicity in BALB/c mouse xenografted with human SW1990 cells assessed as heart damage at 45 mg/kg, ip administered for 28 consecutive days by H and E staining based […] microscopic analysis. Type of data set: organism-based. The settings on record: in vivo, 672 h, time 28 day. (Xenograft models place foreign cells or tissue in a host animal.)

Data set [4] deals with SW1990. Description: Inhibition of homologous recombinant repair in human SW1990 cells assessed as reduction in BRCA1 expression at 1 to 2 uM after 4 days by Western blot analysis. The data set is classed as functional, cell-based. The note with it: dose 1-2 µM, time 4.0 day. For orientation: Immunoblotting shows a protein as a band on a membrane.
Data set [5] has as its system Mus musculus. Description: Effect on cell cycle progression in human SW1990 cells xenografted in BALB/c mouse assessed as reduction in PLK1 expression at 45 mg/kg, ip after 4 days by Western blot analysis. The note with it: time 4.0 day. The data set is classed as functional, organism-based.
Data set [6] concerns Mus musculus. In words: Inhibition of homologous recombinant repair in human SW1990 cells xenografted in BALB/c mouse assessed as increase in HEX1M1 expression at 45 mg/kg, ip after 4 days by immunohistochemical analysis. Type of data set: functional, organism-based. The note with it: time 4.0 day.
For data set [7], the target named is Bromodomain-containing protein 3 (Homo sapiens, UniProt Q15059). In words: Inhibition of recombinant BRD3 BD2 (unknown origin) incubated for 120 mins by TR-FRET assay. On the technique in general: TR-FRET usually uses a lanthanide donor and a delayed reading to cut background.
For data set [8], the system named is SW1990. Description: Induction of apoptosis in human SW1990 cells assessed as necrotic cells at 2 uM after 4 days by Annexin V-FITC and propidium iodide staining based flow cytometry (reference value: 1.89%). The data set is classed as functional. The note with it: time 4 day.
Data set [9] concerns SW1990. In words: Induction of autophagy in human SW1990 cells xenografted in BALB/c mouse assessed as increase in LC3B expression at 45 mg/kg, ip after 4 days by Western blot analysis. The data set is classed as functional, organism-based. The settings on record: time 4.0 day.
The target in data set [10] is Bromodomain-containing protein 4 (Homo sapiens, UniProt O60885). Description: Inhibition of BRD4 expression in human SW1990 cells at 1 uM after 4 days by Western blot analysis. The data set is classed as cell-based. The settings on record: time 4.0 day.
In data set [11] the test system is SW1990. Description: Inhibition of homologous recombinant repair in human SW1990 cells assessed as reduction in BRCA1 expression at 1 to 2 uM after 4 days by Q-PCR analysis. The note with it: dose 1-2 µM, time 4.0 day. Type of data set: functional, cell-based.
Data set [12] has as its system SW1990. In words: Antitumor activity against human SW1990 cells xenografted in BALB/c mouse assessed as inhibition of tumor growth at 45 mg/kg, ip administered for 28 consecutive days and measured every 3 days by vernier caliper method. Type of data set: functional, organism-based. The settings on record: time 28.0 day.
Data set [13] deals with Mus musculus. Description: Effect on cell cycle progression in human SW1990 cells xenografted in BALB/c mouse assessed as reduction in CDK6 expression at 45 mg/kg, ip after 4 days by Q-PCR analysis. Type of data set: functional, organism-based. The settings on record: time 4.0 day.
In data set [14] the test system is Mus musculus. Description: Toxicity in BALB/c mouse xenografted with human SW1990 cells assessed as spleen damage at 45 mg/kg, ip administered for 28 consecutive days by H and E staining based […] microscopic analysis. The settings on record: in vivo, 672 h, time 28 day. The data set is classed as organism-based.
For data set [15], the system named is SW1990. Description: Induction of autophagy in human SW1990 cells assessed as increase in ATG5 expression at 1 to 2 uM incubated for 4 days by immunofluorescence assay. The data set is classed as functional, cell-based. The settings on record: dose 1-2 µM, time 4.0 day.
The subject of data set [16] is SW1990. Description: Induction of autophagy in human SW1990 cells xenografted in BALB/c mouse assessed as decrease in p62 expression at 45 mg/kg, ip after 4 days by Q-PCR analysis. Type of data set: functional, organism-based. The note with it: time 4.0 day.
Data set [17] concerns Mus musculus. Description: Effect on cell cycle progression in human SW1990 cells xenografted in BALB/c mouse assessed as reduction in E2F2 expression at 45 mg/kg, ip after 4 days by Western blot analysis. The data set is classed as functional, organism-based. The note with it: time 4.0 day.
The subject of data set [18] is Mus musculus. In words: Inhibition of homologous recombinant repair in human SW1990 cells xenografted in BALB/c mouse assessed as reduction in c-Myc expression at 45 mg/kg, ip after 4 days by immunohistochemical analysis. The data set is classed as functional, organism-based. The note with it: time 4.0 day.
Data set [19] has as its system Mus musculus. In words: Toxicity in BALB/c mouse xenografted with human SW1990 cells assessed as spleen damage at 15 mg/kg, ip administered for 28 consecutive days in presence of 45 mg/kg Olaparib. The data set is classed as organism-based. The note with it: in vivo, 672 h, time 28 day.
The subject of data set [20] is Mus musculus. Description: Toxicity in BALB/c mouse xenografted with human SW1990 cells assessed as effect on body weight at 15 mg/kg, ip administered for 28 consecutive days. Type of data set: organism-based. The settings on record: in vivo, 672 h, time 28 day.
The test system of data set [21] is Mus musculus. Description: Toxicity in BALB/c mouse xenografted with human SW1990 cells assessed as spleen damage at 15 mg/kg, ip administered for 28 consecutive days by H and E staining based […] microscopic analysis. The note with it: in vivo, 672 h, time 28 day. The data set is classed as organism-based.
For data set [22], the system named is Mus musculus. Description: Toxicity in BALB/c mouse xenografted with human SW1990 cells assessed as kidney damage at 15 mg/kg, ip administered for 28 consecutive days by H and E staining based […] microscopic analysis. Type of data set: organism-based. The settings on record: in vivo, 672 h, time 28 day.
Data set [23] relates to Mus musculus. In words: Toxicity in BALB/c mouse xenografted with human SW1990 cells assessed as liver damage at 15 mg/kg, ip administered for 28 consecutive days by H and E staining based […] microscopic analysis. The data set is classed as organism-based. The note with it: in vivo, 672 h, time 28 day.
In data set [24] the test system is Mus musculus. Description: In vivo inhibition of PARP1 expression in human […] cells xenografted in BALB/c mouse assessed as reversal of Olaparib-induced PARP1 accumulation at 15 mg/kg, ip administered for 28 consecutive days in presence of 45 mg/kg Olaparib by immunohistochemical analysis. The data set is classed as functional, organism-based. The note with it: time 28.0 day.

The subject of data set [25] is Mus musculus. In words: Toxicity in BALB/c mouse xenografted with human SW1990 cells assessed as lung damage at 15 mg/kg, ip administered for 28 consecutive days by H and E staining based […] microscopic analysis. Type of data set: organism-based. The settings on record: in vivo, 672 h, time 28 day.
The subject of data set [26] is SW1990. Description: Inhibition of homologous recombinant repair in human SW1990 cells assessed as reduction in FOXM1 expression at 4 uM after 4 days by Western blot analysis. The data set is classed as functional, cell-based. The note with it: time 4.0 day.
The subject of data set [27] is SW1990. In words: Induction of cell cycle arrest in human SW1990 cells assessed as accumulation of cells at G0/G1 phase at 1 uM incubated for 4 days in presence of 3 uM Olaparib by propidium iodide staining based flow cytometry (reference value: 64.79%). Type of data set: functional. The note with it: time 4 day.
The test system of data set [28] is Mus musculus. Description: Toxicity in BALB/c mouse xenografted with human SW1990 cells assessed as liver damage at 15 mg/kg, ip administered for 28 consecutive days in presence of 45 mg/kg Olaparib. The note with it: in vivo, 672 h, time 28 day. Type of data set: organism-based.
Data set [29] relates to SW1990. Description: Induction of cell cycle arrest in human SW1990 cells assessed as accumulation of cells at S phase at 4 uM incubated for 4 days by propidium iodide staining based flow cytometry (reference value: 29.32%). Type of data set: functional. The note with it: time 4 day.
Data set [30] relates to SW1990. In words: Induction of apoptosis in human SW1990 cells assessed as necrotic cells at 4 uM after 4 days by Annexin V-FITC and propidium iodide staining based flow cytometry (reference value: 1.89%). The data set is classed as functional. The note with it: time 4 day.
Data set [31] concerns SW1990. In words: Inhibition of homologous recombinant repair in human SW1990 cells assessed as increase in […] expression at 4 uM after 4 days by Q-PCR analysis. The data set is classed as functional, cell-based. The note with it: time 4.0 day.
Data set [32] deals with SW1990. Description: Inhibition of homologous recombinant repair in human SW1990 cells assessed as reduction in Olaparib-induced FOXM1 expression at 1 uM after 4 days in presence of Olaparib by Western blot analysis. The settings on record: time 4.0 day. Type of data set: functional, cell-based.
Data set [33] concerns SW1990. Description: Inhibition of homologous recombinant repair in human SW1990 cells assessed as reduction in BRCA1 expression at 4 uM after 4 days by Western blot analysis. Type of data set: functional, cell-based. The settings on record: time 4.0 day.

The source made the active and inactive calls. The calls are words filed in the database; no cut-off is given here.

Bromodomain-containing protein 3, sequence (Q15059 whole entry): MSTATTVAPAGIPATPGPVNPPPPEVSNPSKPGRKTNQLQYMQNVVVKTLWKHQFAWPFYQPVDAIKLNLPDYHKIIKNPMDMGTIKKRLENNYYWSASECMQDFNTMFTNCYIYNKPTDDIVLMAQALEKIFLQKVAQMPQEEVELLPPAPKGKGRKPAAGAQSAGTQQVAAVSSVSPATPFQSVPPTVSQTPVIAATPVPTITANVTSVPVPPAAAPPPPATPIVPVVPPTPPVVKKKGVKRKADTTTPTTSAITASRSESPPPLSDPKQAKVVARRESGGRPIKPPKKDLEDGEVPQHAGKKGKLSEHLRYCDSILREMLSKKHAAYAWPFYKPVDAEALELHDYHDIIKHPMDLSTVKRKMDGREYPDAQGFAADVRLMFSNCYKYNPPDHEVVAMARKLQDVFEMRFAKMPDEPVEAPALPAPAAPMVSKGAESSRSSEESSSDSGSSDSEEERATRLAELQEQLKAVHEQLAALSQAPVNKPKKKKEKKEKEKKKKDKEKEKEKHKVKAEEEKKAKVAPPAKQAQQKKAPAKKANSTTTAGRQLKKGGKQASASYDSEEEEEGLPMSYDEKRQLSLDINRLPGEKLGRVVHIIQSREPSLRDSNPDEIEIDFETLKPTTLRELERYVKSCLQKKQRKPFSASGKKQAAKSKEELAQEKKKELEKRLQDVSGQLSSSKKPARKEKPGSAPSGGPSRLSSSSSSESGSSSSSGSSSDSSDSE

As usually defined, the IC50 is the concentration that inhibits the measured activity by half. `CC[C@@H]1C(=O)N(C)c2cnc(N(C)c3ccc(-c4nc5c(C(N)=O)cccc5[nH]4)cc3OC)nc2N1C1CCCC1`: the result in the data set with SW1990 [1], in the data set with Mus musculus [5], in the data set on SW1990 [9], with SW1990 [12], in the data set with Mus musculus [13] and in the data set on SW1990 [15] was Active. Besides, the outcome in the data set on SW1990 [16] and in the data set on Mus musculus [17] was Active. Moreover, the Activity result was “Non-Toxic” with Mus musculus [2], “Non-Toxic” in the data set on Mus musculus [3], 4.56% in the data set with SW1990 [8] and “Non-Toxic” in the data set on Mus musculus [14]. In addition, the inhibition result (with SW1990 [4]; in the data set on Mus musculus [6]; in data set [10]; in the data set on SW1990 [11]; with Mus musculus [18]) was “Active” throughout. Further, the IC50 in [7] turned out to be 123 nM.

Regarding `Cc1sc2c(c1C)C(c1ccc(Cl)cc1)=N[C@@H](CC(=O)OC(C)(C)C)c1nnc(C)n1-2`, the Activity result in the data set with Mus musculus [19], with Mus musculus [20], in the data set with Mus musculus [21], with Mus musculus [22], in the data set on Mus musculus [23] and in the data set on Mus musculus [25] was “Non-Toxic” throughout. Further, the Activity in the data set with SW1990 [27] is recorded as 71.53%; in the data set with Mus musculus [28], “Non-Toxic”; in the data set with SW1990 [29], 19.43%; in the data set on SW1990 [30], 1.23%. Moreover, in the data set on Mus musculus [24], the result was Active. For the same compound, the inhibition entry with SW1990 [26], with SW1990 [31], in the data set with SW1990 [32] and in the data set on SW1990 [33] was “Active” in each case.
